Reference: the supplement of paper PMC13380429

Experiments:
Conditions in all cases: 72 h
[1] = system: U2OS; experiment: relative viability EC50 (midpoint between 100% and the lowest measured viability); higher = less toxic
[2] = system: Calu-3; experiment: as above
[3] = system: Caco-2; experiment: as above
[4] = system: HepG2; experiment: drug sensitivity score (DSS) for viability; higher = more toxic; extreme values may be limits of the assay
[5] = system: U2OS; experiment: as above
[6] = system: Calu-3; experiment: as above
[7] = system: Vero E6; experiment: as above
[8] = system: Caco-2; experiment: as above
[9] = system: HepG2; experiment: cell viability relative to DMSO; higher = less toxic
[10] = system: U2OS; experiment: as above
[11] = system: Calu-3; experiment: as above
[12] = system: Vero E6; experiment: as above
[13] = system: Caco-2; experiment: as above
[14] = system: HepG2; experiment: relative viability EC50 (midpoint between 100% and the lowest measured viability); higher = less toxic
[15] = system: Vero E6; experiment: as above

Compound | relative viability EC50 [1] [µM] | relative viability EC50 [2] [µM] | relative viability EC50 [3] [µM] | drug sensitivity score [4] | drug sensitivity score [5] | drug sensitivity score [6] | drug sensitivity score [7] | drug sensitivity score [8] | cell viability ([9]; 1 nM) [%] | cell viability ([9]; 10 nM) [%] | cell viability ([9]; 100 nM) [%] | cell viability ([9]; 1000 nM) [%] | cell viability ([9]; 10000 nM) [%] | cell viability ([10]; 1 nM) [%] | cell viability ([10]; 10 nM) [%] | cell viability ([10]; 100 nM) [%] | cell viability ([10]; 1000 nM) [%] | cell viability ([10]; 10000 nM) [%] | cell viability ([11]; 1 nM) [%] | cell viability ([11]; 10 nM) [%] | cell viability ([11]; 100 nM) [%] | cell viability ([11]; 1000 nM) [%] | cell viability ([11]; 10000 nM) [%] | cell viability ([12]; 1 nM) [%] | cell viability ([12]; 10 nM) [%] | cell viability ([12]; 100 nM) [%] | cell viability ([12]; 1000 nM) [%] | cell viability ([12]; 10000 nM) [%] | cell viability ([13]; 1 nM) [%] | cell viability ([13]; 10 nM) [%] | cell viability ([13]; 100 nM) [%] | cell viability ([13]; 1000 nM) [%] | cell viability ([13]; 10000 nM) [%] | relative viability EC50 [14] [µM] | relative viability EC50 [15] [µM]
c1cc(-c2cnn3cc(-c4ccc(N5CCNCC5)cc4)cnc23)c2cccnc2c1 | 2.11 | 3.69 | 2.67 | 0.8 | 7.6 | 4.5 | 2.5 | 5.1 | 108 | 101 | 97.2 | 102 | 74.9 | 97.4 | 93.2 | 95.9 | 87.2 | 1.5 | 109 | 104 | 97.4 | 111 | 6.2 | 92.4 | 99 | 92.6 | 87.7 | 69.3 | 93.9 | 99.7 | 102 | 95.1 | 20.6 | – | –
COCc1c(-c2ccc(NC(=O)Nc3cc(C(F)(F)F)ccc3F)c(F)c2)c2c(N)ncnn2c1CN1CCOCC1 [ACTB-1003] | 1.34 | – | 1.35 | 16.2 | 7.8 | 5.2 | 3.7 | 6.8 | 110 | 104 | 91.1 | 18.1 | 2.1 | 97.6 | 97.1 | 101 | 75 | 23.3 | 101 | 87.5 | 93.9 | 72.1 | 65.2 | 95.7 | 102 | 101 | 106 | 24.8 | 105 | 99 | 102 | 78.4 | 32.9 | 0.386 | 3.57
CCCC(C)(COC(N)=O)COC(=O)NC(C)C (stereo not drawn) [CARISOPRODOL] | > 10 | > 10 | > 10 | – | 0 | 0 | 0 | 0 | – | – | – | – | – | 102 | 97.7 | 101 | 102 | 104 | 108 | 88.2 | 93.2 | 85.7 | 98.1 | 106 | 101 | 98.8 | 105 | 101 | 96.1 | 103 | 97.6 | 101 | 104 | – | > 10
N[C@@H](C(=O)O)c1cc(O)ccc1Cl [CHPG] | > 10 | – | > 10 | – | 0 | – | 0 | 0 | – | – | – | – | – | 97.6 | 99 | 98.5 | 104 | 103 | – | – | – | – | – | 94.9 | 93.4 | 92.2 | 94.6 | 108 | 94.2 | 91.7 | 94.8 | 98.7 | 96 | – | > 10
CS(=O)(=O)N1CCN(Cc2cc3nc(-c4cccc5[nH]ncc45)nc(N4CCOCC4)c3s2)CC1 [GDC-0941] | 0.775 | 0.438 | 0.158 | 9.2 | 6.9 | 11.8 | 6.5 | 11.6 | – | – | – | – | – | – | – | – | – | – | – | – | – | – | – | – | – | – | – | – | – | – | – | – | – | – | –
CC1Nc2ccc(Cl)cc2S(=O)(=O)N1 (stereo not drawn) [IDRA-21] | > 10 | > 10 | > 10 | 0 | 0 | 0 | – | 0 | 102 | 93.8 | 97.3 | 98.9 | 98 | 99.3 | 105 | 99.6 | 102 | 98.2 | 87.5 | 92.2 | 102 | 97.4 | 101 | – | – | – | – | – | 105 | 105 | 95 | 104 | 99 | > 10 | –
CC(C)c1ccc(NC(=O)c2cccs2)c(-c2nc3ccccc3[nH]c2=O)c1 [ML281] | > 10 | – | > 10 | 0 | 0 | – | 0 | 0 | 103 | 106 | 105 | 95.7 | 102 | 111 | 105 | 101 | 102 | 98.3 | – | – | – | – | – | 96.3 | 101 | 97 | 95.5 | 96.1 | 102 | 102 | 96.5 | 102 | 93.5 | > 10 | > 10
Cc1ccc(NCCCc2ccccc2)c(N)c1 [NFKB-activation-inhibitor-II] | > 10 | > 10 | > 10 | 0 | 0 | 0.1 | – | 0 | 110 | 97.1 | 103 | 98.2 | 100 | 98.9 | 102 | 94.9 | 102 | 93.2 | 90 | 93.8 | 94.7 | 103 | 84.1 | – | – | – | – | – | 89.4 | 85 | 92.6 | 98.4 | 79.9 | > 10 | –
